Measured values taken from patent publication US12448389B2, “BRM targeting compounds and associated methods of use” (Prelude Therapeutics Incorporated, priority 2020, dated 2025).

Experiments:
[1] = biological target: T1, SMARCA2-HiBiT (Homo sapiens, UniProt P51531); assay: SMARCA2 HiBiT degradation assay in HeLa cells; assay type: cell-based; conditions: 18 hours incubation; for DC50: read-out: HeLa_HiBit-SM2 DC50; for Dmax: HeLa, read-out: HeLa-HiBit-SM2 Dmax (%)
T1 construct: SMARCA2-HiBiT knock-in Hela monoclonal cell (CS302366); host or cells: HeLa monoclonal knock-in line (CRISPR HiBiT knock-in at the endogenous locus, heterozygous)
Summary of the method: (§1)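 HeLa monoclonal lines with heterozygous HiBiT knock-in were seeded at 2500 cells/well in EMEM with 10% FBS and treated with compound for 18 h at 37 °C. Remaining tagged protein was measured by Nano-Glo HiBiT lytic luminescence after 30–60 min at RT, and values came from curve fitting.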

[2] = biological target: T2, SMARCA4-HiBiT (Homo sapiens, UniProt P51532); assay: SMARCA4 HiBiT degradation assay in HeLa cells; assay type: cell-based; conditions: 18 hours incubation; for DC50: read-out: HeLa-HiBit-SM4 DC50; for Dmax: HeLa, read-out: HeLa-HiBit-SM4 Dmax (%)
T2 construct: SMARCA4-HiBiT knock-in Hela monoclonal cell (CS3023226); host or cells: HeLa monoclonal knock-in line (CRISPR HiBiT knock-in at the endogenous locus, heterozygous)
Summary of the method: as §1

T1 sequence (P51531 whole entry): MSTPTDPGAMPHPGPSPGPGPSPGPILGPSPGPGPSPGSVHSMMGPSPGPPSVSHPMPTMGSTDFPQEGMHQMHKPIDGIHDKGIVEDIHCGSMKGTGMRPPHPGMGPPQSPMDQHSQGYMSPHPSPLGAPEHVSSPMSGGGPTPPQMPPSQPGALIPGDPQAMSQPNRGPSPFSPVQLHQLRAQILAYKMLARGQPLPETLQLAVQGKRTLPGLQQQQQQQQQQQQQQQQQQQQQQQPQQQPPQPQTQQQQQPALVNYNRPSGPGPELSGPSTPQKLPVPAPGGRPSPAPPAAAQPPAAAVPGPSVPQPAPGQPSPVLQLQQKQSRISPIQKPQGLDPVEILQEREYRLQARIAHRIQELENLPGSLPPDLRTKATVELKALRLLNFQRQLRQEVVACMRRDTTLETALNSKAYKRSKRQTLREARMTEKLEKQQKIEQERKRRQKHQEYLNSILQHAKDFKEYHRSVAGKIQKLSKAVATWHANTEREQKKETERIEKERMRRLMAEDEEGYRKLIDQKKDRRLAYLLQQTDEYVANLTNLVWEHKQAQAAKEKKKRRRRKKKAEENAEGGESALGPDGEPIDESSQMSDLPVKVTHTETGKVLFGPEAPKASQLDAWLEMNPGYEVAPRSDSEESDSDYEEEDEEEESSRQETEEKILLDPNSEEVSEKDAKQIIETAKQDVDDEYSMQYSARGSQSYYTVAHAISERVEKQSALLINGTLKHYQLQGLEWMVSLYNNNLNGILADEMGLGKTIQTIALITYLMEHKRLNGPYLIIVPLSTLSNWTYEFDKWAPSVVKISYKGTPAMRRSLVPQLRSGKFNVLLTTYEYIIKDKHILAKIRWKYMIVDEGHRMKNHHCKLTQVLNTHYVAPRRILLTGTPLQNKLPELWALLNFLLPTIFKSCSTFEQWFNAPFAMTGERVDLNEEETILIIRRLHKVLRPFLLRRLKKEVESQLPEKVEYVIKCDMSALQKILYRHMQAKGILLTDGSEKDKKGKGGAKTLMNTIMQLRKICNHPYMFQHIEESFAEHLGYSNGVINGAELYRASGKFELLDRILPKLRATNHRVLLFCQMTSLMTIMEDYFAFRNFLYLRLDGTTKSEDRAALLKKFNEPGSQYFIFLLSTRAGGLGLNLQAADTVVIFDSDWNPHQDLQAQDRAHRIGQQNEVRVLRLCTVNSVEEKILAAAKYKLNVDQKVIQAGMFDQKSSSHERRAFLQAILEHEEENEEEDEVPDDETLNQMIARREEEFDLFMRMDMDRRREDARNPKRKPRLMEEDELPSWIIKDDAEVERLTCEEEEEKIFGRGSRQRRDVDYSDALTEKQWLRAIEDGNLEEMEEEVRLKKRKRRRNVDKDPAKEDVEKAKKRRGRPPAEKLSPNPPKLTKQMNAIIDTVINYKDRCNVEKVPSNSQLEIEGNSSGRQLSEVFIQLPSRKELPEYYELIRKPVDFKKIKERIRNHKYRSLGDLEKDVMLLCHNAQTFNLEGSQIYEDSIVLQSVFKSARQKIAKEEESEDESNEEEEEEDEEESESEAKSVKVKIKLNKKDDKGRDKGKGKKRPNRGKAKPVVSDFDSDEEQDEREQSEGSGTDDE
T2 sequence (P51532 whole entry): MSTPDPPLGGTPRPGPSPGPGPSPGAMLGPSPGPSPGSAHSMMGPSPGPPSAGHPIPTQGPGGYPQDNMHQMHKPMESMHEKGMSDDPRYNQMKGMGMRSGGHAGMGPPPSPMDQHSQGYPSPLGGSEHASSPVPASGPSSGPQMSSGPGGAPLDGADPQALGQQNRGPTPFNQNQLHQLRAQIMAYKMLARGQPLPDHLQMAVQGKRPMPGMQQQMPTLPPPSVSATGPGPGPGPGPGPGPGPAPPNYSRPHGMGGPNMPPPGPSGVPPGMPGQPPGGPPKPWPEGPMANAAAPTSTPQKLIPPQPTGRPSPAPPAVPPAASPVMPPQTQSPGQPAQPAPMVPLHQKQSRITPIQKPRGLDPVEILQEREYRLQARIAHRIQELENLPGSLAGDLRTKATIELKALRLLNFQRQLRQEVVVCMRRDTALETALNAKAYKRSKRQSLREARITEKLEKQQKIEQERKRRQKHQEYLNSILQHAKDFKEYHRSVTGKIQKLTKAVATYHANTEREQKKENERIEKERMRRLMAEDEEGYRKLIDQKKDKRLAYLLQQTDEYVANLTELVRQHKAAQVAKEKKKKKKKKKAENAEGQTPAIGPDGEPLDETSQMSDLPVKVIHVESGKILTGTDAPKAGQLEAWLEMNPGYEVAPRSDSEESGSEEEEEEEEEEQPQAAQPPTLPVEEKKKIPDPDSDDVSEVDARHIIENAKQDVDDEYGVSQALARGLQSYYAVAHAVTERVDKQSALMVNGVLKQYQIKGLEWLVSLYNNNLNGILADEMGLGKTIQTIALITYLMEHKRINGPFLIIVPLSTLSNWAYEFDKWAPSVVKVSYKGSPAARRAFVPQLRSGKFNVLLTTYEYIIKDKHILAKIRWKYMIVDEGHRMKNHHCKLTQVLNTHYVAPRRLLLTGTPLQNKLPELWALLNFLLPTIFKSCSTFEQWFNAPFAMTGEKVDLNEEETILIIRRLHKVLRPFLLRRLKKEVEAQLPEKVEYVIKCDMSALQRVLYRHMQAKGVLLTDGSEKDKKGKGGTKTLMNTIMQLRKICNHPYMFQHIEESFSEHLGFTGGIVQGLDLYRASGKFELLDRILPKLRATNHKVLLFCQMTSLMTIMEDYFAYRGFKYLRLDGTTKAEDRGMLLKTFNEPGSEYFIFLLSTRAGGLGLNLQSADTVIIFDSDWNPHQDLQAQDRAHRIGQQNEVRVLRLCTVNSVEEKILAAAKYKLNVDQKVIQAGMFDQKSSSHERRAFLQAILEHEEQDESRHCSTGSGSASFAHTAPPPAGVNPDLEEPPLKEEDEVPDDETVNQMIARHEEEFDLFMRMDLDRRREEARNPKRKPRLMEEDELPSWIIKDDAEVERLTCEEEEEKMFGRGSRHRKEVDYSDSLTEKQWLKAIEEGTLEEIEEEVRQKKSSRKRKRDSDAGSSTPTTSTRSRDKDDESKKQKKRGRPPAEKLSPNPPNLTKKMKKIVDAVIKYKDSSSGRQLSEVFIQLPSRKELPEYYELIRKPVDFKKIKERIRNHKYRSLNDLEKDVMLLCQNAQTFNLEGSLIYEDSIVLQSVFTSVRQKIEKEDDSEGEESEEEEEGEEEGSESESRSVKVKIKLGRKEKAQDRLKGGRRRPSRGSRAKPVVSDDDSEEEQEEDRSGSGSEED

Compound | DC50 [1] | Dmax [1] | DC50 [2] | Dmax [2]
C[C@H]1CN2c3cc(-c4ccccc4O)nnc3NC[C@H]2CN1C[C@H]1[C@@H]2CN(CC3CCN(c4ccc5c(c4)CN(C4CCC(=O)NC4=O)C5=O)CC3)C[C@@H]21 (stereo partly drawn) [Example 57, 3-(5-(4-(((1R,5S,6r)-6-(((6aS,9S)-2-(2-hydroxyphenyl)-9-methyl-5,6,6a,7,9,10-hexahydro-8H-pyrazino[1′,2′:4,5]pyrazino[2,3-c]pyridazin-8-yl)methyl)-3-azabicyclo[3.1.0]hexan-3-yl)methyl)piperidin-1-yl)-1-oxoisoindolin-2-yl)piperidine-2,6-dione] | < 10 nM | 50 to 75% | < 10 nM | ≤ 50%
O=C1CCC(N2C(=O)c3ccc(N4CC(CN5CCC(CN6CCN7c8cc(-c9ccccc9O)nnc8NC[C@H]7C6)CC5)C4)cc3C2=O)C(=O)N1 (stereo partly drawn) [Example 247, 2-(2,6-dioxopiperidin-3-yl)-5-(3-((4-(((S)-2-(2-hydroxyphenyl)-5,6,6a,7,9,10-hexahydro-8H-pyrazino[1′,2′:4,5]pyrazino[2,3-c]pyridazin-8-yl)methyl)piperidin-1-yl)methyl)azetidin-1-yl)isoindoline-1,3-dione] | < 10 nM | > 85% | < 10 nM | > 85%
CN(CCN1CCC(N2CCN3c4cc(-c5ccccc5O)nnc4NC[C@H]3C2)CC1)C1CCN(c2ccc3c(c2)C(=O)N(C2CCC(=O)NC2=O)C3=O)CC1 (stereo partly drawn) [Example 158, 2-(2,6-dioxopiperidin-3-yl)-5-(4-((2-(4-((S)-2-(2-hydroxyphenyl)-5,6,6a,7,9,10-hexahydro-8H-pyrazino[1′,2′:4,5]pyrazino[2,3-c]pyridazin-8-yl)piperidin-1-yl)ethyl)(methyl)amino)piperidin-1-yl)isoindoline-1,3-dione] | < 10 nM | > 85% | < 10 nM | > 85%
N#CC1(CN2CCC(CN3CCN4c5cc(-c6ccccc6O)nnc5NC[C@H]4C3)CC2)CCN(c2ccc3c(c2)C(=O)N(C2CCC(=O)NC2=O)C3=O)CC1 (stereo partly drawn) [Example 179, 1-[2-(2,6-dioxopiperidin-3-yl)-1,3-dioxoisoindol-5-y]-4-[[4-[[(10S)-4-(2-hydroxyphenyl)-1,5,6,8,12-pentazatricyclo[8.4.0.02,7]tetradeca-2,4,6-trien-12-yl]methyl]piperidin-1-yl]methyl]piperidine-4-carbonitrile] | < 10 nM | 50 to 75% | < 10 nM | 50 to 75%
O=C1CCC(N2C(=O)c3ccc(N4CCC(CN5CC6(CC(CN7CCN8c9cc(-c%10ccccc%10O)nnc9NC[C@H]8C7)C6)C5)CC4)cc3C2=O)C(=O)N1 (stereo partly drawn) [Example 41, 2-(2,6-dioxopiperidin-3-yl)-5-(4-((6-(((S)-2-(2-hydroxyphenyl)-5,6,6a,7,9,10-hexahydro-8H-pyrazino[1′,2′:4,5]pyrazino[2,3-c]pyridazin-8-yl)methyl)-2-azaspiro[3.3]heptan-2-yl)methyl)piperidin-1-yl)isoindoline-1,3-dione] | < 10 nM | > 85% | < 10 nM | > 85%
CC1CN(C(=O)N2CCN3c4cc(-c5ccccc5O)nnc4NC[C@H]3C2)CCN1CC1CCN(c2ccc3c(c2)C(=O)N(C2CCC(=O)NC2=O)C3)CC1 (stereo partly drawn) [Example 106, 3-(6-(4-((4-((S)-2-(2-hydroxyphenyl)-6,6a,7,8,9,10-hexahydro-5H-pyrazino[1′,2′:4,5]pyrazino[2,3-c]pyridazine-8-carbonyl)-2-methylpiperazin-1-yl)methyl)piperidin-1-yl)-1-oxoisoindolin-2-yl)piperidine-2,6-dione] | < 10 nM | > 85% | < 10 nM | 75 to 85%
CC1CN(CC2CCN(c3cc4c(cc3F)C(=O)N(C3CCC(=O)NC3=O)C4=O)CC2)CCC1CN1CCN2c3cc(-c4ccccc4O)nnc3NC[C@H]2C1 (stereo partly drawn) [Example 165, 2-(2,6-dioxopiperidin-3-yl)-5-fluoro-6-[4-[[4-[[(10S)-4-(2-hydroxyphenyl)-1,5,6,8,12-pentazatricyclo[8.4.0.02,7]tetradeca-2,4,6-trien-12-yl]methyl]-3-methylpiperidin-1-yl]methyl]piperidin-1-yl] isoindole-1,3-dione] | < 10 nM | 75 to 85% | < 10 nM | 75 to 85%
C[C@H]1CN2c3cc(-c4ccccc4O)nnc3NC[C@H]2CN1C[C@H]1[C@@H]2CN(CC3CCN(c4ccc5c(c4)C(=O)N(C4CCC(=O)NC4=O)C5=O)C[C@@H]3F)C[C@@H]21 (stereo in doubt) [Example 199, 2-(2,6-dioxopiperidin-3-yl)-5-[(3R,4R)-3-fluoro-4-[[(1S,5R)-6-[[(10S,13S)-4-(2-hydroxyphenyl)-13-methyl-1,5,6,8,12-pentazatricyclo [8.4.0.02,7]tetradeca-2(7),3,5-trien-12-yl]methyl]-3-azabicyclo [3.1.0]hexan-3-yl]methyl]piperidin-1-yl]isoindole-1,3-dione] | < 10 nM | > 85% | < 10 nM | 50 to 75%
O=C1CCC(N2C(=O)c3ccc(C4CCN(C5CCN(CCN6CCN7c8cc(-c9ccccc9O)nnc8NC[C@H]7C6)C5)CC4)cc3C2=O)C(=O)N1 (stereo partly drawn) [Example 243, 2-(2,6-dioxopiperidin-3-yl)-5-(1-(1-(2-((S)-2-(2-hydroxyphenyl)-5,6,6a,7,9,10-hexahydro-8H-pyrazino[1′,2′:4,5]pyrazino[2,3-c]pyridazin-8-yl)ethyl)pyrrolidin-3-yl)piperidin-4-yl)isoindoline-1,3-dione] | < 10 nM | > 85% | < 10 nM | > 85%
O=C1CCC(N2C(=O)c3ccc(N4CCC(CN5CCC(CN6CCN7c8cc(-c9ccccc9O)nnc8NC[C@H]7C6)CC5)CC4)cc3C2=O)C(=O)N1COP(=O)(O)O (stereo partly drawn) [Example 129, (3-(5-(4-((4-(((S)-2-(2-hydroxyphenyl)-5,6,6a,7,9,10-hexahydro-8H-pyrazino[1′,2′:4,5]pyrazino[2,3-c]pyridazin-8-yl)methyl)piperidin-1-yl)methyl)piperidin-1-yl)-1,3-dioxoisoindolin-2-yl)-2,6-dioxopiperidin-1-yl)methyl) dihydrogen phosphate] | < 10 nM | > 85% | < 10 nM | > 85%
O=C1CCC(N2C(=O)c3ccc(Nc4cnn(CCN5CCC(N6CCN7c8cc(-c9ccccc9O)nnc8NC[C@H]7C6)CC5)c4)cc3C2=O)C(=O)N1 (stereo partly drawn) [Example 245, 2-(2,6-dioxopiperidin-3-yl)-5-((1-(2-(4-((S)-2-(2-hydroxyphenyl)-5,6,6a,7,9,10-hexahydro-8H-pyrazino[1′,2′:4,5]pyrazino[2,3-c]pyridazin-8-yl)piperidin-1-yl)ethyl)-1H-pyrazol-4-yl)amino)isoindoline-1,3-dione] | < 10 nM | 50 to 75% | 10 to 100 nM | 50 to 75%
O=C1CCC(N2C(=O)c3ccc(N4CCC(CN5CCC(CCCN6CCN7c8cc(-c9ccccc9O)nnc8NC[C@H]7C6)CC5)CC4)cc3C2=O)C(=O)N1 (stereo partly drawn) [Example 228, 2-(2,6-dioxopiperidin-3-yl)-5-(4-((4-(3-((S)-2-(2-hydroxyphenyl)-5,6,6a,7,9,10-hexahydro-8H-pyrazino[1′,2′:4,5]pyrazino[2,3-c]pyridazin-8-yl)propyl)piperidin-1-yl)methyl)piperidin-1-yl)isoindoline-1,3-dione] | < 10 nM | > 85% | < 10 nM | > 85%
O=C1CCC(N2C(=O)c3ccc(N4CCC5(CC4)CC(N4C[C@@H]6[C@@H](CN7CCN8c9cc(-c%10ccccc%10O)nnc9NC[C@H]8C7)[C@@H]6C4)C5)cc3C2=O)C(=O)N1 (stereo partly drawn) [Example 93, 2-(2,6-dioxopiperidin-3-yl)-5-(2-((1R,5S,6s)-6-(((S)-2-(2-hydroxyphenyl)-5,6,6a,7,9,10-hexahydro-8H-pyrazino[1′,2′:4,5]pyrazino[2,3-c]pyridazin-8-yl)methyl)-3-azabicyclo[3.1.0]hexan-3-yl)-7-azaspiro[3.5]nonan-7-yl)isoindoline-1,3-dione] | < 10 nM | > 85% | < 10 nM | > 85%
O=C1CCC(N2C(=O)c3cc(F)c(N4CCN(CC5CCN(C(=O)N6CCN7c8cc(-c9ccccc9O)nnc8NC[C@H]7C6)CC5)CC4)cc3C2=O)C(=O)N1 (stereo partly drawn) [Example 263, 2-(2,6-dioxopiperidin-3-yl)-5-fluoro-6-(4-((1-((S)-2-(2-hydroxyphenyl)-6,6a,7,8,9,10-hexahydro-5H-pyrazino[1′,2′:4,5]pyrazino[2,3-c]pyridazine-8-carbonyl)piperidin-4-yl)methyl)piperazin-1-yl)isoindoline-1,3-dione] | < 10 nM | ≤ 50% | 10 to 100 nM | ≤ 50%
O=C1CCC(N2Cc3ccc(N4CCC(CN5C6CCC5CN(C(=O)N5CCN7c8cc(-c9ccccc9O)nnc8NC[C@H]7C5)C6)CC4)cc3C2=O)C(=O)N1 (stereo partly drawn) [Example 103, 3-(6-(4-((3-((S)-2-(2-hydroxyphenyl)-6,6a,7,8,9,10-hexahydro-5H-pyrazino[1′,2′:4,5]pyrazino[2,3-c]pyridazine-8-carbonyl)-3,8-diazabicyclo[3.2.1]octan-8-yl)methyl)piperidin-1-yl)-1-oxoisoindolin-2-yl)piperidine-2,6-dione] | < 10 nM | 75 to 85% | 10 to 100 nM | 75 to 85%
